Results reported in patent publication US9522891B2, “Pyridazine derivatives and use thereof as medicaments for treating microRNA viral infection” (INSTITUTE OF PHARMACOLOGY AND TOXICOLOGY ACADEMY OF …, priority 2010, dated 2016).
≈ marks a conversion by molar mass, not a printed value. One block for each compound: values may come before it.

Key:
rhinovirus (HRV) = settings: cited from earlier work
HeLa cells = test: Determination of the maximum nontoxic dose of the compound; assay type: cell-based; settings: observed each 24 h for 3 days
Procedure: The drug was dissolved in DMSO, diluted with cell maintenance medium by 20 times, then diluted stepwise by 2 times to form working solutions with different concentrations. HeLa cells were inoculated on 96-well plate in an amount of 10,000 (0.1 mL) per well, added with 0.1 mL maintenance medium, incubated at 37° C. in adherence manner, sucked to remove maintenance medium, replaced it with 0.2 mL of compound working solution, and maintenance medium was used as control. The growth of cell was observed each 24 h, for 3 days.

[1] = Bioorg Med Chem. 2009, 17: 621-624; cited from earlier work
rhinovirus 3 (HRV-3) [2] = test: Maximum viral inhibition concentration; assay type: cell-based; settings: compound concentration giving 100% inhibition of TCID50 about 100; virus added in doubling manner
rhinovirus 3 (HRV-3) [3] = test: Measurement of half effective concentration (therapy); assay type: cell-based; settings: Enterovirus, HRV3, HeLa cells, TCID50 about 100, 48 h, prevents 50% cells from CPE
rhinovirus 3 (HRV-3) [4] = test: Measurement of inhibition index of compound; assay type: cell-based; settings: highest dilution times of viral inhibition/nontoxic limit dilution times
Procedure: The inhibition index of drug was calculated: inhibition index=highest dilution times of viral inhibition/nontoxic limit dilution times.

rhinovirus 3 (HRV-3) [5] = test: Prophylactic administration, cell protection from CPE; assay type: cell-based; settings: 100 ng/ml, TCID50 about 100, 3 days
rhinovirus 3 (HRV-3) [6] = test: Therapeutic administration, cell protection from CPE; assay type: cell-based

SMILES: CCOC(=O)c1ccc(OCCC2CCN(c3ccc(C)nn3)CC2)cc1 [Pirodavir]
activity against rhinovirus (HRV) (rhinovirus (HRV); in vivo and in vitro, literature): significant activity

SMILES: CCc1ccc(OCCCN2CCN(c3ccc(Cl)nn3)CC2)cc1 [Example 3, 3-{4-[3-(4-ethylphenoxy)propyl]piperazin-1-yl}-6-chloropyridazine]
melting point: 123 to 125 °C

SMILES: CCOc1ccc(OCCCN2CCN(c3ccc(Cl)nn3)CC2)cc1 [Example 1, 3-{4-[3-(4-ethoxylphenoxy)propyl]piperazin-1-yl}-6-chloropyridazine]
melting point: 125 to 127 °C

SMILES: CCOc1ccc(OCCN2CCN(c3cc(Cl)nnc3Cl)CC2)cc1 [Control 2, 3,6-dichloro-4-{4-[2-(4-ethoxylphenoxy)ethyl]piperazin-1-yl}pyridazine]
Maximum nontoxic dose (HeLa cells): 31.3 µg/mL
toxicity [1]: relatively low toxicity
Maximum inhibition virus titer (rhinovirus 3 (HRV-3) [2]): ≦200 TCID50
EC50 (rhinovirus 3 (HRV-3) [3]): 0.025 µg/mL (≈ 0.0629 µM)
Inhibition index (rhinovirus 3 (HRV-3) [4]): 1/625
index of selectivity (rhinovirus (HRV); Bioorg Med Chem. 2009, 17: 621-624): relatively high index of selectivity
inhibition activity to HRV (rhinovirus (HRV); compared to Pirodavir, Bioorg Med Chem. 2009, 17: 621-624): activity comparable to Pirodavir
protection effects in preventing phagocytosis (CPE) (rhinovirus 3 (HRV-3) [5]): good protection effects
protection effects (rhinovirus 3 (HRV-3) [6]; therapeutic administration condition): good protection effects
Cell protection rate (rhinovirus 3 (HRV-3) [6]; therapeutic administration, 100 ng/mL, TCID50 100, HeLa cells, 48 h): 100%

SMILES: Cc1ccc(OCCCN2CCN(c3ccc(Cl)nn3)CC2)cc1 [Example 2, 3-{4-[3-(4-methylphenoxy)propyl]piperazin-1-yl}-6-chloropyridazine]
melting point: 129 to 131 °C

Continued, values first:

melting point: 125 to 127 °C
SMILES: CC(C)c1ccc(OCCCN2CCN(c3ccc(Cl)nn3)CC2)cc1 [Example 4, 3-{4-[3-(4-isopropylphenoxy)propyl]piperazin-1-yl}-6-chloropyridazine]

melting point: 128 to 130 °C
SMILES: COC(=O)c1ccc(OCCCN2CCN(c3ccc(Cl)nn3)CC2)cc1 [Example 5, 4-{3-[4-(6-chloropyridazin-3-yl)piperazin-1-yl]propoxy} benzoic acid methyl ester]

melting point: 125 to 127 °C
SMILES: CCOC(=O)c1ccc(OCCCN2CCN(c3ccc(Cl)nn3)CC2)cc1 [Example 6, 4-{3-[4-(6-chloropyridazin-3-yl)piperazin-1-yl]propoxy}benzoic acid ethyl ester]
